Structures can show the parent of a compound that is named as a salt.
Experiments:
Assay type in all cases: physicochemical
[1] = Particle size distribution by laser diffraction (Malvern apparatus); conditions: for Particle size d (v, 0.05): volume diameter of 5% of the particles; for Particle size d (v, 0.1): volume diameter of 10% of the particles; for Particle size d (v, 0.5): volume diameter of 50% of the particles; for Particle size d (v, 0.9): volume diameter of 90% of the particles
Procedure: (§1) The particle size was determined by laser diffraction using a Malvern apparatus. The parameters taken into consideration were the VD in microns of 5%, 10%, 50%, and 90% of the particles expressed as d(v,0.05), d(v,0.1), d(v, 0.5), and d(v, 0.9), respectively, which correspond to the mass diameter assuming a size independent density for the particles. The Specific Surface Area (SSA) was determined by BET nitrogen adsorption using a Coulter SA3100 apparatus as a mean of three determinations.
(§2) Different batches of formoterol fumarate dihydrate were milled in a jet mill apparatus at different operating conditions in order to obtain different particle size distribution. The micronized batches were characterised in terms of particle size distribution and Specific Surface Area as reported in Example 1.

[2] = Agglomerates after mixing with a carrier of coarser particles, detected by Near Infrared Spectrophotometer with microscope; conditions: batch added to carrier of coarser particles; suitable time of mixing, or ten hours of mixing where agglomerates remained
Procedure: (§3) The various batches were then added to a carrier made of coarser particles.
as §3

[3] = Specific Surface Area by BET nitrogen adsorption (Coulter SA3100); conditions: mean of three determinations
Procedure: as §1, §2

| Structure (SMILES) | Particle size d (v, 0.05) [1] | Particle size d (v, 0.1) [1] | Particle size d (v, 0.5) [1] | Particle size d (v, 0.9) [1] | Agglomerates of the active ingredient in the formulation after mixing [2] | SSA (Specific Surface Area) [3] |
| --- | --- | --- | --- | --- | --- | --- |
| COc1ccc(C[C@@H](C)NC[C@H](O)c2ccc(O)c3[nH]c(=O)ccc23)cc1 [carmoterol hydrochloride batch 1] | 0.70 μm | 0.94 μm | 2.16 μm | 4.34 μm | no agglomerates were observed | 9.70 m^2/g |
| COc1ccc(C[C@@H](C)NC[C@H](O)c2ccc(O)c3[nH]c(=O)ccc23)cc1 [carmoterol hydrochloride batch 2] | 0.67 μm | 0.85 μm | 2.03 μm | 4.31 μm | no agglomerates were observed | 9.68 m^2/g |
| COc1ccc(C[C@@H](C)NC[C@H](O)c2ccc(O)c3[nH]c(=O)ccc23)cc1 [carmoterol hydrochloride batch 3] | 0.58 μm | 0.59 μm | 1.32 μm | 2.75 μm | agglomerates where still present | 18.11 m^2/g |
| COc1ccc(C[C@@H](C)NC[C@H](O)c2ccc(O)c3[nH]c(=O)ccc23)cc1 [carmoterol hydrochloride batch 4] | 0.55 μm | 0.68 μm | 1.58 μm | 3.40 μm | agglomerates where still present | 10.74 m^2/g |
| COc1ccc(C[C@@H](C)NC[C@H](O)c2ccc(O)c3[nH]c(=O)ccc23)cc1 [carmoterol hydrochloride batch 5] | 0.48 μm | 0.70 μm | 1.45 μm | 2.75 μm | agglomerates where still present | 11.91 m^2/g |
| COc1ccc(C[C@@H](C)NC[C@H](O)c2ccc(O)c3[nH]c(=O)ccc23)cc1 [carmoterol hydrochloride batch 6] | 0.59 μm | 0.73 μm | 1.61 μm | 3.25 μm |  | 11.80 m^2/g |

Reference: patent publication US20100055192A1, “MICRONIZED PARTICLES OF LOW-DOSAGE STRENGTH ACTIVE AGENTS FOR POWDER FORMULATIONS FOR INHALATION” (Chiesi Farmaceutici S.p.A., priority 2007, published 2010)
